Test results reported in patent US20220042033A1, “COMPOSITION AND METHOD FOR CONFERRING AND/OR ENHANCING TOLERANCE AGAINST HERBICIDES BY USING VARIANTS OF PPO” (FarmHannong Co., Ltd., priority 2017, published 2022).

Key:
[1] = molecular target: Auxenochlorella protothecoides ApPPO1 (SEQ ID NO: 1) variant A215L, fused to MBP (Auxenochlorella protothecoides, UniProt A0A087SQM0, A215L); experiment: biochemical
Method: (§2) Thus, PPO proteins of wild type and variants were expressed as fused to MBP and were used for experiments.
(§3) The following process for purification of PPO protein was performed in a 4° C. cold room. […] The column was washed with 3 column volumes of buffer and the presence of protein in the washing solution was examined. When the protein was no longer detected, the washing procedure was terminated. Then, the MBP-PPO protein was eluted with approximately 2 column volumes of buffer containing 20 mM maltose. The protein concentration of each eluent was determined and the elution was stopped when the protein was no longer detected. Ten microliter of each fraction was investigated for protein quantification and SDS-PAGE analysis. […]
(§4) Hundred and eighty microliters of a reaction mixture containing the purified PPO protein were placed in 96 well plates and 20 μl of purified PPO proteins were added. […] The reaction proceeded at room temperature for 30 min and the fluorescence of protoporphyrin IX was measured using Microplate reader (Sense, Hidex) (excitation: 405 nm; emission: 633 nm). […] To this, 2.7 N HCl was added, and the absorbance at 408 nm was measured. A standard curve was generated using standard protoporphyrin IX, and PPO activity was measured by calibration of protoporphyrin IX using the standard curve of protoporphyrin IX.

[2] = molecular target: Auxenochlorella protothecoides ApPPO1 (SEQ ID NO: 1) variant F209A, fused to MBP (Auxenochlorella protothecoides, UniProt A0A087SQM0, F209A); experiment: PPO enzyme inhibition assay (IC50), MBP-fused PPO; assay type: biochemical
Sequence of Auxenochlorella protothecoides ApPPO1 (SEQ ID NO: 1) variant F209A, fused to MBP (A0A087SQM0 entry or part of it F209A): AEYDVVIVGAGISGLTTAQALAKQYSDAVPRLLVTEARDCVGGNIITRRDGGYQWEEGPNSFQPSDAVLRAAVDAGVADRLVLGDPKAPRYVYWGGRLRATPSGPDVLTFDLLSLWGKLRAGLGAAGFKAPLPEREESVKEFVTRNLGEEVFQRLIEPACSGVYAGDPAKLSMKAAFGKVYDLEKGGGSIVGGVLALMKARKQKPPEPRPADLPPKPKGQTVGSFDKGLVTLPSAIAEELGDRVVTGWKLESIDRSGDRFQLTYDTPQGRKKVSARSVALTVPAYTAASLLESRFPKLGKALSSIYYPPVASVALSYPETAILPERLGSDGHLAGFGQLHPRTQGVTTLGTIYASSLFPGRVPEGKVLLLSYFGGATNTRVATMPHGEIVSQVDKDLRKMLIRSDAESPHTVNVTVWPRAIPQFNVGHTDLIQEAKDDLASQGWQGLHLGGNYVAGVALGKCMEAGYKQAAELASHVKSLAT
Method: as §2, §3, §4

[3] = test system: E. coli BT3(ΔPPO) transformed with Myxococcus xanthus MxPPO (SEQ ID NO: 3) variant M365I; experiment: Herbicide tolerance test in PPO-deficient E. coli BT3(ΔPPO), growth on plates; assay type: cell-based; settings: Table 9, light, tiafenacil to 2000 μM, saflufenacil to 200 μM, flumioxazin to 100 μM
Method: (§5) The mutated CyPPO gene obtained from the Example 2 was transformed to BT3 (ΔPPO) strain which is deficient of PPO activity and cultured in LB media with PPO-inhibiting herbicide, thereby examining whether growth of transformed BT3 was not inhibited.
(§6) BT3 competent cells were transformed with the pET303-ApPPO1 and pET303-MxPPO plasmids and those with a mutation(s) constructed in Example 2 respectively, and were cultured in LB agar media containing carbenicillin (Gold Biotechnology, Co., Ltd.).
(§7) Single colony of E. coli transformed with each CyPPO gene was cultured in 3 ml of LB broth containing carbenicillin overnight, and then was subcultured until absorbance (OD600) reached 0.5 to 1. Then, it was diluted with LB broth to OD600=0.5. Again, the diluted solution was serially diluted 4 times by a factor of one tenth.
(§8) The LB agar media (LB 25 g/l, Bacto agar 15 g/l) containing carbenicillin (100 μg/ml) and 0 to 4,000 μM of various herbicides dissolved in DMSO was prepared. Next, 10 μl of each diluted solution was dropped on the plate and cultured at 37° C. under light (Tables 7, 9 and 10, FIGS. 2 to 6, 13 to 20) or dark (Tables 8 and 11, FIGS. 7 to 12, 21 to 24) for 16 to 20 hours. Then, the extent of tolerance was evaluated.
(§9) The extent of herbicide tolerance of the ApPPO1 or MxPPO mutated genes was evaluated by comparing that of mutated genes with that of ApPPO1 or MxPPO wild type. […]

[4] = test system: E. coli BT3(ΔPPO) transformed with Auxenochlorella protothecoides ApPPO1 (SEQ ID NO: 1) variant Y422L (YL); experiment: as above; assay type: cell-based; settings: Table 7, light, 37° C., 16 to 20 hours, vs wild type at highest herbicide concentration
Method: as §5, §6, §7, §8
(§10) The extent of herbicide tolerance of the ApPPO1 or MxPPO mutated genes was evaluated by comparing that of mutated genes with that of ApPPO1 or MxPPO wild type. The relative tolerance was represented with “+” as a factor of 10 times.
(§11) In Tables 7 to 11, tolerance level was presented as ‘−’ of tolerance of wild type and of variants equivalent to that of wild type, and was done as ‘+’ per each 10 fold resistance until ‘+++++’ as maximal resistance. […] A dilution series (OD600=0.5, 0.05, 0.005, 0.0005, 0.00005) was made and spotted on LB agar plates supplemented with herbicides.

[5] = molecular target: T1, Myxococcus xanthus MxPPO (SEQ ID NO: 3) variant A170L, fused to MBP (Myxococcus xanthus, UniProt P56601, A170L); experiment: biochemical
T1 construct: made in house; host or cells: BL21 CodonPlus(DE3) E. coli
T1 sequence (P56601 whole entry A170L, the tested form may be a part): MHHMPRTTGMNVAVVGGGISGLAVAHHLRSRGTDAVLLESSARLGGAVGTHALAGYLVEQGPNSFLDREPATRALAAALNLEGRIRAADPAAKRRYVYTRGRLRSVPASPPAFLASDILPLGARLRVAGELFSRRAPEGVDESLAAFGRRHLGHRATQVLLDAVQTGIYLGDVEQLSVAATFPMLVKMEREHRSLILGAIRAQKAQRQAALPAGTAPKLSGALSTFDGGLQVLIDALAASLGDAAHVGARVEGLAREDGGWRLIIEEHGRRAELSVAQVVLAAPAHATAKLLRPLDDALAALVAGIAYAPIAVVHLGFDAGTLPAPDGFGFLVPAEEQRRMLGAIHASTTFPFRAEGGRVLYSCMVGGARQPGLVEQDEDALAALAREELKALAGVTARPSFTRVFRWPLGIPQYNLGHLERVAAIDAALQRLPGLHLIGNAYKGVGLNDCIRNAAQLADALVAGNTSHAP
Method: as §2
(§12) In order to express wild type and variant proteins of ApPPO1 and MxPPO, those genes were introduced into pMAL-c2x vector (refer to FIG. 25), respectively.
as §3
(§13) Hundred and eighty microliters of a reaction mixture containing the purified PPO protein were placed in 96 well plates and 20 μl of purified PPO proteins were added. […] The reaction proceeded at room temperature for 30 min and the fluorescence of protoporphyrin IX was measured using Microplate reader (Sense, Hidex) (excitation: 405 nm; emission: 633 nm). […] To this, 2.7 N HCl was added, and the absorbance at 408 nm was measured. […]

[6] = test system: E. coli BT3(ΔPPO) transformed with Auxenochlorella protothecoides ApPPO1 wild type, SEQ ID NO: 1; experiment: Herbicide tolerance test in PPO-deficient E. coli BT3(ΔPPO), growth on plates; assay type: cell-based; settings: ApPPO1 WT, 37° C., 16 to 20 hours
Method: (§1) Then, the extent of tolerance was evaluated.

[7] = test system: E. coli BT3(ΔPPO) transformed with Myxococcus xanthus MxPPO wild type, SEQ ID NO: 3; experiment: as above; assay type: cell-based; settings: MxPPO WT, light
Method: as §1

[8] = test system: E. coli BT3(ΔPPO) transformed with Myxococcus xanthus MxPPO (SEQ ID NO: 3) variant A170L; experiment: as above; assay type: cell-based; settings: Table 9, light, tiafenacil to 2000 μM, saflufenacil to 200 μM, flumioxazin to 100 μM
Method: as §5, §6, §7, §8, §9

[9] = test system: E. coli BT3(ΔPPO) transformed with Myxococcus xanthus MxPPO (SEQ ID NO: 3) variant M365V; experiment: as above; assay type: cell-based; settings: Table 9, light, tiafenacil to 2000 μM, saflufenacil to 200 μM, flumioxazin to 100 μM
Method: as §5, §6, §7, §8, §9

[10] = molecular target: T2, Myxococcus xanthus MxPPO (SEQ ID NO: 3) variant V164A, fused to MBP (Myxococcus xanthus, UniProt P56601, V164A); experiment: PPO enzyme inhibition assay (IC50), MBP-fused PPO (Table 15); assay type: biochemical
T2 construct: For encoding the PPO protein (MxPPO); made in house; host or cells: BL21 CodonPlus(DE3) E. coli
T2 sequence (P56601 whole entry V164A, the tested form may be a part): as the sequence (P56601 whole entry A170L, the tested form may be a part) above, with V164A, L170A counted along it

[11] = molecular target: T3, Myxococcus xanthus MxPPO (SEQ ID NO: 3) variant I311M, fused to MBP (Myxococcus xanthus, UniProt P56601, I311M); experiment: biochemical
T3 construct: made in house; host or cells: BL21 CodonPlus(DE3) E. coli
T3 sequence (P56601 whole entry I311M, the tested form may be a part): as the sequence (P56601 whole entry A170L, the tested form may be a part) above, with L170A, I311M counted along it
Method: as §2, §12, §3, §13

[12] = test system: E. coli BT3(ΔPPO) transformed with Myxococcus xanthus MxPPO (SEQ ID NO: 3) variant M365L; experiment: Herbicide tolerance test in PPO-deficient E. coli BT3(ΔPPO), growth on plates; assay type: cell-based; settings: Table 9, light, tiafenacil to 2000 μM, saflufenacil to 200 μM, flumioxazin to 100 μM
Method: as §5, §6, §7, §8, §9

[13] = test system: E. coli BT3(ΔPPO) transformed with Auxenochlorella protothecoides ApPPO1 (SEQ ID NO: 1) variant A215L (AL); experiment: as above; assay type: cell-based; settings: Table 7, light, 37° C., 16 to 20 hours, vs wild type at highest herbicide concentration
Method: as §5, §6, §7, §8, §10, §11

[14] = molecular target: T4, Myxococcus xanthus MxPPO (SEQ ID NO: 3) variant L332T, fused to MBP (Myxococcus xanthus, UniProt P56601, L332T); experiment: PPO enzyme inhibition assay (IC50), MBP-fused PPO (Table 15); assay type: biochemical
T4 construct: made in house; host or cells: BL21 CodonPlus(DE3) E. coli
T4 sequence (P56601 whole entry L332T, the tested form may be a part): as the sequence (P56601 whole entry A170L, the tested form may be a part) above, with L170A, L332T counted along it
Method: as §2, §12, §3, §13

[15] = molecular target: Auxenochlorella protothecoides ApPPO1 (protoporphyrinogen IX oxidase), wild type, SEQ ID NO: 1, fused to MBP (Auxenochlorella protothecoides, UniProt A0A087SQM0); experiment: PPO enzyme inhibition assay (IC50), MBP-fused PPO; assay type: biochemical; settings: ApPPO1 WT; 50 μM protoporphyrinogen IX, pH 8.0, room temperature, 30 min
Sequence of Auxenochlorella protothecoides ApPPO1 (protoporphyrinogen IX oxidase), wild type, SEQ ID NO: 1, fused to MBP (A0A087SQM0 51-532): as the sequence (A0A087SQM0 entry or part of it F209A) above, with A159F counted along it

[16] = test system: E. coli BT3(ΔPPO) transformed with Auxenochlorella protothecoides ApPPO1 (SEQ ID NO: 1) variant A215C (AC); experiment: Herbicide tolerance test in PPO-deficient E. coli BT3(ΔPPO), growth on plates; assay type: cell-based; settings: Table 7, light, 37° C., 16 to 20 hours, vs wild type at highest herbicide concentration
Method: as §5, §6, §7, §8, §10, §11

[17] = molecular target: T5, Myxococcus xanthus MxPPO (protoporphyrinogen IX oxidase), wild type, SEQ ID NO: 3, fused to MBP (Myxococcus xanthus, UniProt P56601); experiment: PPO enzyme inhibition assay (IC50), MBP-fused PPO (Table 15); assay type: biochemical; settings: protoporphyrinogen IX 50 μM, room temperature, 30 min
T5 construct: For encoding the PPO protein (MxPPO); made in house; host or cells: BL21 CodonPlus(DE3) E. coli
T5 sequence (P56601 whole entry, the tested form may be a part): as the sequence (P56601 whole entry A170L, the tested form may be a part) above, with L170A counted along it

[18] = molecular target: Auxenochlorella protothecoides ApPPO1 (SEQ ID NO: 1) variant F386V, fused to MBP (Auxenochlorella protothecoides, UniProt A0A087SQM0, F386V); experiment: PPO enzyme inhibition assay (IC50), MBP-fused PPO; assay type: biochemical
Sequence of Auxenochlorella protothecoides ApPPO1 (SEQ ID NO: 1) variant F386V, fused to MBP (A0A087SQM0 entry or part of it F386V): as the sequence (A0A087SQM0 entry or part of it F209A) above, with A159F, F336V counted along it

[19] = test system: E. coli BT3(ΔPPO) transformed with Auxenochlorella protothecoides ApPPO1 (SEQ ID NO: 1) variant V360M (VM); experiment: Herbicide tolerance test in PPO-deficient E. coli BT3(ΔPPO), growth on plates; assay type: cell-based; settings: Table 7, light, 37° C., 16 to 20 hours, vs wild type at highest herbicide concentration
Method: as §5, §6, §7, §8, §10, §11

Sequence of Auxenochlorella protothecoides ApPPO1 (SEQ ID NO: 1) variant A215L, fused to MBP (A0A087SQM0 entry or part of it A215L): as the sequence (A0A087SQM0 entry or part of it F209A) above, with A159F, A165L counted along it

SMILES: COC(=O)CCNC(=O)C(C)Sc1cc(-n2c(=O)cc(C(F)(F)F)n(C)c2=O)c(F)cc1Cl (stereo not drawn) [tiafenacil]
- IC50 [1]: 3460 nM
- IC50 [2]: 69 nM
- relative herbicide tolerance level [3]: + (1-9 fold higher tolerance)
- relative herbicide tolerance level [4]: ++ (10-99 fold higher tolerance)
- IC50 [5]: > 5000 nM
- relative herbicide tolerance level ([6]; Table 7, light, vs wild type at highest herbicide concentration): −
- relative herbicide tolerance level ([6]; Table 8, dark, tiafenacil to 200 μM, flumioxazin to 100 μM, sulfentrazone to 400 μM): −
- relative herbicide tolerance level ([7]; Table 9, tiafenacil to 2000 μM, saflufenacil to 200 μM, flumioxazin to 100 μM): −
- relative herbicide tolerance level ([7]; Table 10, tiafenacil 2000 μM, flumioxazin to 400 μM, sulfentrazone to 1000 μM): −
- relative herbicide tolerance level [8]: + (1-9 fold higher tolerance)
- relative herbicide tolerance level [9]: + (1-9 fold higher tolerance)
- IC50 [10]: 367 nM
- IC50 [11]: 964 nM
- relative herbicide tolerance level [12]: + (1-9 fold higher tolerance)
- relative herbicide tolerance level [13]: ++ (10-99 fold higher tolerance)
- IC50 [14]: 1010 nM
- IC50 [15]: 21 nM
- relative herbicide tolerance level [16]: + (1-9 fold higher tolerance)
- IC50 [17]: 0.242 µM
- IC50 [18]: 368 nM
- relative herbicide tolerance level [19]: ++ (10-99 fold higher tolerance)
